According to patent publication US6593480B2 (Abbott Laboratories, priority 1999, dated 2003):

Target: T1, progesterone receptor (PR) (Homo sapiens, UniProt P06401)
T1 sequence (P06401 1-933): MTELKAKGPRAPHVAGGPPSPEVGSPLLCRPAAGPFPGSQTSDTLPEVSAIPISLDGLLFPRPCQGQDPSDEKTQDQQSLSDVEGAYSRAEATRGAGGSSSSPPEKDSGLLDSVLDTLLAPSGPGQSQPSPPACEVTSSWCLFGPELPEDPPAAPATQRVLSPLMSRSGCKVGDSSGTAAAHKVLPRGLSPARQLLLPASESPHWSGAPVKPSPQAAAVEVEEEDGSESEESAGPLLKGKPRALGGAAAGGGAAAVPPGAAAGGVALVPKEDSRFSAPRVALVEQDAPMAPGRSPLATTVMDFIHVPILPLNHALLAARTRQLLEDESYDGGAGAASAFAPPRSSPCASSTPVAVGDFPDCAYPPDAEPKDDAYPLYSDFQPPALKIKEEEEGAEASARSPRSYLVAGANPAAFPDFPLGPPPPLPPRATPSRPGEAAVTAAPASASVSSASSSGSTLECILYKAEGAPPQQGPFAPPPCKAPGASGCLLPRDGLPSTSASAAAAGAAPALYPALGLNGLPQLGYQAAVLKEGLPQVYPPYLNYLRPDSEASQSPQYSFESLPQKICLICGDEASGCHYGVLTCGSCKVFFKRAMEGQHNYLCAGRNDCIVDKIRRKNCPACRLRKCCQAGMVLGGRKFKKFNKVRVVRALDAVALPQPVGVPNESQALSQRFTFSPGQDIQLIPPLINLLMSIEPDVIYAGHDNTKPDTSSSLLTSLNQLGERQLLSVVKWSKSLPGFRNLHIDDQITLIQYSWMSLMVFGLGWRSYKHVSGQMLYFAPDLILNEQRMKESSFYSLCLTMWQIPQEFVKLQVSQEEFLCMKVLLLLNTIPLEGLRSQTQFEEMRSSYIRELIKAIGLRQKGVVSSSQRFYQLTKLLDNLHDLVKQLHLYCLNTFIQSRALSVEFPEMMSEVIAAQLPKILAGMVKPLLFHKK
Assay: Radioligand binding assay with progesterone receptor cytosol (similar protocol)
Excerpt: Methods for Radioligand Binding Studies with Human Glucocorticoid and Progesterone Receptor Cytosol
A similar protocol was employed to measure affinity of the compounds of the present invention for progesterone receptor (PR).

SMILES | IC50
C=Cc1c(NS(C)(=O)=O)ccc2c1C(c1cccc(C(F)(F)F)c1)Oc1cccc(OC)c1-2 (stereo not shown) [Example 3, (1-methoxy-6-(3-trifluoromethyl)phenyl-7-vinyl-6H-dibenzo(b,d)pyran-8-yl)methanesulfonamide] | > 10000 nM
COc1cccc2c1-c1ccc(NS(C)(=O)=O)cc1C(c1ccccc1)O2 (stereo not shown) [Example 5, N-(1-methoxy-6-phenyl-6H-dibenzo[b,d]pyran-8-yl)methanesulfonamide] | 3350 nM
COc1cccc2c1-c1ccc(NS(=O)(=O)c3ccccc3F)cc1C(c1ccccc1)O2 (stereo not shown) [Example 18] | > 10000 nM
C=CCOc1ccc(C2Oc3cccc(OC)c3-c3ccc(NS(C)(=O)=O)cc32)cc1 (stereo not shown) [Example 32, (1methoxy-6-(4-allyloxy)phenyl-6H-dibenzo(b,d)pyran-8-yl)-methanesulfonamide] | > 10000 nM
CNc1cccc(C2Oc3cccc(OC)c3-c3ccc(NS(C)(=O)=O)cc32)c1 (stereo not shown) [Example 81, N-{1-methoxy-6-[3-(methylamino)phenyl]-6H-benzo[c]chromen-8-yl}methanesulfonamide] | 9360 nM
COc1cccc2c1-c1ccc(NS(C)(=O)=O)cc1C(c1cccc(N(C)S(C)(=O)=O)c1)O2 (stereo not shown) [Example 83, N-(1-methoxy-6-{3-[methyl(methylsulfonyl)amino]phenyl}-6H-benzo[c]chromen-8-yl)methanesulfonamide] | 3630 nM
COc1cccc2c1-c1ccc(NS(C)(=O)=O)cc1C(c1cccc(C#Cc3ccccc3)c1)O2 (stereo not shown) [Example 91, N-{1-methoxy-6-[3-(phenylethynyl)phenyl]-6H-benzo[c]chromen-8-yl}methanesulfonamide] | > 1000 nM
COc1cccc2c1-c1ccc(NS(C)(=O)=O)cc1C(c1ccc(C#Cc3ccccc3)s1)O2 (stereo not shown) [Example 93, N-{1-methoxy-6-[5-(phenylethynyl)-2-thienyl]-6H-benzo[c]chromen-8-yl}methanesulfonamide] | > 1000 nM
COc1cccc2c1-c1ccc(NS(C)(=O)=O)cc1C(c1cccc(/C=C/c3ccccc3)c1)O2 (stereo not shown) [Example 99, N-(1-methoxy-6-{3-[(E)-2-phenylethenyl]phenyl}-6H-benzo[c]chromen-8-yl)methanesulfonamide] | > 1000 nM
COc1cccc2c1-c1ccc(NS(C)(=O)=O)cc1C(c1ccc(C#CCCCO)s1)O2 (stereo not shown) [Example 102, N-{6-[5-(5-hydroxy-1-pentynyl)-2-thienyl]-1-methoxy-6H-benzo[c]chromen-8-yl}methanesulfonamide] | > 1000 nM
CCOC(=O)CCCCCc1cccc(C2Oc3cccc(OC(F)F)c3-c3ccc(NS(C)(=O)=O)cc32)c1 (stereo not shown) [Example 119, ethel 6-(3-{1-(difluoromethoxy)-8-[(methylsulfonyl)amino]-6H-benzo[c]chromen-6-yl}phenyl)hexanoate] | 1960 nM
COc1cccc2c1-c1ccc(NS(C)(=O)=O)cc1C(c1cccc(-c3ccc(C)cc3)c1)O2 (stereo not shown) [Example 123, N-[1-methoxy-6-(4′-methyl[1,1′-biphenyl]-3-yl)-6H-benzo[c]chromen-8-yl]methanesulfonamide] | > 10000 nM
COc1cccc(-c2cccc(C3Oc4cccc(OC)c4-c4ccc(NS(C)(=O)=O)cc43)c2)c1 (stereo not shown) [Example 124, N-[1-methoxy-6-(3′-methoxyl[1,1′-biphenyl]-3-yl)-6H-benzo[c]chromen-8-yl]methanesulfonamide] | > 10000 nM
COc1ccc(-c2cccc(C3Oc4cccc(OC)c4-c4ccc(NS(C)(=O)=O)cc43)c2)cc1 (stereo not shown) [Example 125, N-[1-methoxy-6-(4′-methoxy[1,1′-biphenyl]-3-yl)-6H-benzo[c]chromen-8-yl]methanesulfonamide] | > 10000 nM

The next lines start with the values.

IC50 | SMILES
460 nM | Nc1ccc2c(c1Br)C(c1ccccc1)Oc1cccc(OC(F)F)c1-2 (stereo not shown) [Example 4, 8-Amino-7-bromo-1-difluoromethoxy-6-phenyl-6H-dibenzo[b,d]pyran]
29 nM | O=S(=O)(Nc1ccc2c(c1)C(c1ccccc1)Oc1cccc(OC(F)F)c1-2)c1cccs1 (stereo not shown) [Example 26, N-(1-difluoromethoxy-6-phenyl-6H-dibenzo[b,d]pyran-8-yl)-thiophene-2-sulfonamide]
500 nM | COc1cccc2c1-c1ccc(CS(N)(=O)=O)cc1C(c1cccc(Cl)c1)O2 (stereo not shown) [Example 60, (1-methoxy-6-(3-chlorophenyl)-6H-dibenzo(b,d)pyran-8-yl)methanesulfonamide]
620 nM | C=CCN(C)c1cccc(C2Oc3cccc(OC)c3-c3ccc(NS(C)(=O)=O)cc32)c1 (stereo not shown) [Example 80, N-(6-{3-[allyl(methyl)amino]phenyl}-1-methoxy-6H-benzo[c]chromen-8-yl)methanesulfonamide]
300 nM | COc1cccc2c1-c1ccc(NS(C)(=O)=O)cc1C(c1cccc(Br)c1)O2 (stereo not shown) [Example 82, N-[6-(3-bromophenyl)-1-methoxy-6H-benzo[c]chromen-8-yl]methanesulfonamide]
210 nM | COc1cccc2c1-c1ccc(NS(C)(=O)=O)cc1C(c1cc(C)cc(C)c1)O2 (stereo not shown) [Example 87, N-[6-(3,5-dimethylphenyl)-1-methoxy-6H-benzo[c]chromen-8-yl]methanesulfonamide]
51 nM | COCC#Cc1ccc(C2Oc3cccc(OC)c3-c3ccc(NS(C)(=O)=O)cc32)s1 (stereo not shown) [Example 92, N-{1-methoxy-6-[5-(3-methoxy-1-propynyl)-2-thienyl]-6H-benzo[c]chromen-8-yl}methanesulfonamide]
120 nM | CS(=O)(=O)Nc1ccc2c(c1)C(c1ccc(Br)s1)Oc1cccc(OC(F)F)c1-2 (stereo not shown) [Example 96, N-{6-(5-bromo-2-thienyl)-1-(difluoromethoxy)-6H-benzo[c]chromen-8-yl}methanesulfonamide]
180 nM | COc1cccc2c1-c1ccc(NS(C)(=O)=O)cc1C(c1ccsc1)O2 (stereo not shown) [Example 97, N-[1-methoxy-6-(3-thienyl)-6H-benzo[c]chromen-8-yl]methanesulfonamide]
92 nM | CCCCC/C=C/C1Oc2cccc(OC)c2-c2ccc(NS(C)(=O)=O)cc21 (stereo not shown) [Example 98, N-{6-[(1E)-1-heptenyl]-1-methoxy-6H-benzo[c]chromen-8-yl}methanesulfonamide]
250 nM | COc1cccc2c1-c1ccc(NS(C)(=O)=O)cc1C(c1ccc(-c3ccccc3)s1)O2 (stereo not shown) [Example 100, N-[1-methoxy-6-(5-phenyl-2-thienyl)-6H-benzo[c]chromen-8-yl]methanesulfonamide]
180 nM | CS(=O)(=O)Nc1ccc2c(c1)C(c1cccc(Br)c1)Oc1cccc(OC(F)F)c1-2 (stereo not shown) [Example 103, N-[6-(3-bromophenyl)-1-(difluoromethoxy)-6H-benzo[c]chromen-8-yl]methanesulfonamide]
60 nM | CS(=O)(=O)Nc1ccc2c(c1)C(c1cccc(F)c1)Oc1cccc(OC(F)F)c1-2 (stereo not shown) [Example 107, N-[1-(difluoromethoxy)-6-(3-fluorophenyl)-6H-benzo[c]chromen-8-yl]methanesulfonamide]
170 nM | COc1cccc(C2Oc3cccc(OC(F)F)c3-c3ccc(NS(C)(=O)=O)cc32)c1 (stereo not shown) [Example 108, N-[1-(difluoromethoxy)-6-(3-methoxyphenyl)-6H-benzo[c]chromen-8-yl]methanesulfonamide]
250 nM | CS(=O)(=O)Nc1ccc2c(c1)C(c1ccc(Br)cc1)Oc1cccc(OC(F)F)c1-2 (stereo not shown) [Example 109, N-[6-(4-bromophenyl)-1-(difluoromethoxy)-6H-benzo[c]chromen-8-yl]methanesulfonamide]
290 nM | CCOC(=O)c1cccc(C2Oc3cccc(OC(F)F)c3-c3ccc(NS(C)(=O)=O)cc32)c1 (stereo not shown) [Example 114, ethyl 3-{1-(difluoromethoxy)-8-[(methylsulfonyl)amino]-6H-benzo[c]chromen-6-yl}benzoate]
1050 nM | C=CCOc1cccc(C2Oc3cccc(OC(F)F)c3-c3ccc(NS(C)(=O)=O)cc32)c1 (stereo not shown) [Example 116, N-[6-[3-(allyloxy)phenyl]-1-(difluoromethoxy)-6H-benzo[c]chromen-8-yl]methanesulfonamide]
430 nM | COCCCc1cccc(C2Oc3cccc(OC(F)F)c3-c3ccc(NS(C)(=O)=O)cc32)c1 (stereo not shown) [Example 117, N-{1-(difluoromethoxy)-6-[3-(3-methoxypropyl)phenyl]-6H-benzo[c]chromen-8-yl}methanesulfonamide]
610 nM | CCOC(=O)CCc1cccc(C2Oc3cccc(OC(F)F)c3-c3ccc(NS(C)(=O)=O)cc32)c1 (stereo not shown) [Example 118, ethyl 3-(3-{1-(difluoromethoxy)-8-[(methylsulfonyl)amino]-6H-benzo[c]chromen-6-yl}phenyl)propanoate]
500 nM | CCOCCCc1cccc(C2Oc3cccc(OC(F)F)c3-c3ccc(NS(C)(=O)=O)cc32)c1 (stereo not shown) [Example 120, N-{1-(difluoromethoxy)-6-[3-(3-ethoxypropyl)phenyl]-6H-benzo[c]chromen-8-yl}methanesulfonamide]
